Measurements as given in patent publication US20240294551A1 (AMGEN INC., priority 2022, published 2024).
Where a name gives a salt, the structure may show the parent alone. Read-outs that look alike come from different tables or passages of the source.

Experiments:
AsPC-1 cells = experiment: AsPC-1 CTG Assay (CellTiter-Glo cell viability); assay type: cell-based, human; settings: first value of the cell, read-out: G12D/C/V Cell Proliferation CTG (72 h) AsPC-1
Method: AsPC-1 and SW620 CTG Assay Protocols
AsPC-1 (human pancreatic adenocarcinoma; ATCC CRL-1682) or SW620 (human colon adenocarcinoma; ATCC CCL-227) cells were cultured in RPMI 1640 medium containing 10% fetal bovine serum and 1× penicillin/streptomycin/L-glutamine. Cells were seeded in 384-well plates at a density of 3.33E+04 cells/mL and incubated at 37° C., 5% CO2, overnight. Serially-diluted compound or DMSO was added to the cells, and plates were incubated at 37° C., 5% CO2 for 72 h. Cell viability was measured using a CellTiter-Glo® Luminescent Cell Viability Assay kit (Promega) according to the manufacturer's protocol. The luminescence signal of treated samples was normalized to DMSO control, and data were analyzed using a 4-parameter logistic model to calculate IC50 values.

[1] = molecular target: His-tagged KRAS G12D protein (Homo sapiens (Human), UniProt P01116, G12D); experiment: KRAS G12D TR-FRET Assay; assay type: binding
Sequence of His-tagged KRAS G12D protein (P01116 other isoform, or with tags, fused parts or gaps G12D): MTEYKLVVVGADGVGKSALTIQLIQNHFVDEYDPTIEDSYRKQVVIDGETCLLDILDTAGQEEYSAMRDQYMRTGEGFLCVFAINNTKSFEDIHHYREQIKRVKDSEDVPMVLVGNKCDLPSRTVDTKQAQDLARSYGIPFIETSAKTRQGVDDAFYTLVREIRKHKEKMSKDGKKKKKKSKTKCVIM
Summary of the method: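 His-tagged KRAS G12D (diluted to 20 nM in pH 7.4 HEPES buffer with 10 mM MgCl2 and 10 μM GDP) was preincubated with titrated compound for 30 min at room temperature. Biotinylated KRPep-2d peptide (diluted to 20 nM) was then added for 1 h, and displacement was monitored by TR-FRET.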

[2] = molecular target: GDP-bound KRAS protein (aa 1-169), containing both G12D and C118A amino acid substitutions (Homo sapiens (Human), UniProt P01116, C118A/G12D); experiment: KRAS G12D Coupled Nucleotide Exchange Assay; assay type: biochemical
Sequence of GDP-bound KRAS protein (aa 1-169), containing both G12D and C118A amino acid substitutions (P01116 other isoform, or with tags, fused parts or gaps G12D/C118A): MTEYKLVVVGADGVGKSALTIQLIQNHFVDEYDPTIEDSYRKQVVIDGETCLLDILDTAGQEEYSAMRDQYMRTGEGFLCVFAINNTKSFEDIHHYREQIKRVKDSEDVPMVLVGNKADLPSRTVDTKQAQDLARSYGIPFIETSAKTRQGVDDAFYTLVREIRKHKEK

[3] = test system: Phosphorylation of ERK1/2 in AsPC-1 cells; experiment: Phospho-ERK1/2 MSD Assay; assay type: cell-based, human
Summary of the method: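 Read-out: MSD electrochemiluminescent detection of phosphorylated ERK1/2 in whole-cell lysates, fitted to a 4-parameter logistic curve for IC50. Prior to lysis, AsPC-1 cells (25,000 per well) received a 2 h compound dose-response at 37 °C.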

[4] = Homo sapiens, ASPC1, 72 h, AsPC-1 cells (G12D), 72 h
[5] = TR-FRET, read-out: KRAS G12D Binding
[6] = 2 hours compound pre-incubation, read-out: KRAS G12D Coupled Exchange
[7] = Homo sapiens, ASPC1, 2 h, read-out: 2 h p-ERK (AsPC-1 cells)
[8] = Homo sapiens, ASPC1, 72 h, AsPC-1, 72 h
[9] = read-out: KRAS G12D Binding IC50
[10] = read-out: KRAS G12D Coupled Exchange IC50
[11] = Homo sapiens, ASPC1, 2 h, read-out: 2 h p-ERK (AsPC-1 cells), IC50
[12] = 2 h, read-out: 2 h p-ERK (AsPC-1 cells), IC50

| IC50 (AsPC-1 cells; [4]) | IC50 [1, 5] | IC50 [2, 6] | IC50 [3, 7] | IC50 (AsPC-1 cells; [8]) | IC50 [1, 9] | IC50 [2, 10] | IC50 [3, 11] | IC50 (AsPC-1 cells; AsPC-1, 72 h) | IC50 [3, 12] | Structure (SMILES) |
| --- | --- | --- | --- | --- | --- | --- | --- | --- | --- | --- |
| 211 nM | 31 nM | 16 nM | 137 nM | – | – | – | – | – | – | OC1CCCCc2c(Cl)cc3[nH]ncc3c2-c2ncc3c(nc(OC[C@@]45CCCN4C[C@H](F)C5)nc3c2F)N2CCC[C@@H](C1)C2 (mixture of isomers) [Example 385, bis(2,2,2-trifluoroacetate) salt] |
| – | – | – | – | 1250 nM | 14 nM | 5 nM | 180 nM | – | – | Cc1cc2[nH]ncc2c2c1CCCOC(=O)O[C@H]1CN(CC[C@H]1F)c1nc(OC[C@@]34CCCN3C[C@H](F)C4)nc3c(F)c-2ncc13 (racemic) [Example 93] |
| – | – | – | – | 3100 nM | 10 nM | 7 nM | 236 nM | – | – | O=C1CCCCc2c(Cl)cc3[nH]ncc3c2-c2ncc3c(nc(OC[C@@]45CCCN4C[C@H](F)C5)nc3c2F)N2CCC3CN1[C@H]3C2 (mixture of isomers) [Example 164] |
| – | – | – | – | 778 nM | 6 nM | 3 nM | 53.1 nM | – | – | O=C1CCCCc2c(Cl)cc3[nH]ncc3c2-c2ncc3c(nc(OC[C@@]45CCCN4C[C@H](F)C5)nc3c2F)N2C[C@@H](O)C[C@H](C2)N1 (racemic) [Example 275, (17R,19S)-9-chloro-30-fluoro-24-(((2R,7aS)-2-fluorotetrahydro-1H-pyrrolo[1,2-a]pyrrol-7a(5H)-yl)methoxy)-19-hydroxy-5,6,16,21,23,25,29-heptaazahexacyclo[24.3.1.1~17,21~.0~2,10~.0~3,7~.0~22,27~]hentriaconta-1(30),2,4,7,9,22,24,26,28-nonaen-15-one] |
| – | – | – | – | 1190 nM | 7 nM | 3 nM | 133 nM | – | – | O=C1N[C@@H]2CC[C@H](O)CN(C2)c2nc(OC[C@@]34CCCN3C[C@H](F)C4)nc3c(F)c(ncc23)-c2c(c(Cl)cc3[nH]ncc23)CCCO1 (racemic) [Example 282, (26R,29S)-18-chloro-32-fluoro-4-(((2R,7aS)-2-fluorotetrahydro-1H-pyrrolo[1,2-a]pyrrol-7a(5H)-yl)methoxy)-29-hydroxy-23-oxa-1,3,5,9,14,15,25-heptaazahexacyclo[24.4.1.1~6,10~.0~2,7~.0~11,19~.0~12,16~]dotriaconta-2,4,6(32),7,9,11,13,16,18-nonaen-24-one] |
| – | – | – | – | 650 nM | 8 nM | 4 nM | 104 nM | – | – | Cc1cc2[nH]ncc2c2c1/C=C\COC(=O)O[C@@H]1CCCN(C1)c1nc(OC[C@@]34CCCN3C[C@H](F)C4)nc3c(F)c-2ncc13 (single isomer, unassigned) [Example 123] |
| – | – | – | – | 670 nM | 7 nM | 3 nM | 77 nM | – | – | Fc1c2ncc3c(nc(OC[C@@]45CCCN4C[C@H](F)C5)nc13)N1CCOC[C@H](COCCCCc3c(Cl)cc4[nH]ncc4c3-2)C1 (single isomer, unassigned) [Example 136] |
| – | – | – | – | – | 30 nM | 21 nM | – | 5000 nM | 467 nM | O[C@@H]1C[C@@H]2CN(C1)c1nc(OC[C@@]34CCCN3C[C@H](F)C4)nc3c(F)c(ncc13)-c1c(c(Cl)cc3[nH]ncc13)CCCn1ncc2n1 (single isomer, unassigned) [Example 299] |
| – | – | – | – | – | 10 nM | 5 nM | – | 281 nM | 23.2 nM | O[C@@H]1C[C@@H]2CN(C1)c1nc(OC[C@@]34CCCN3C[C@H](F)C4)nc3c(F)c(ncc13)-c1c(c(Cl)cc3[nH]ncc13)CCCn1ncc2n1 (single isomer, unassigned) [Example 300] |
| – | – | – | – | 115 nM | 5 nM | 3 nM | 15.4 nM | – | – | CN(C)CC1(COc2nc3c4cnc(c(F)c4n2)-c2c(c(Cl)cc4[nH]ncc24)CCCOC(=O)O[C@]2(C)COCCN3C2)CC1 (single isomer, unassigned) [Example 331] |
| 3120 nM | 27 nM | 15 nM | 673 nM | – | – | – | – | – | – | Fc1c2ncc3c(nc(OC[C@@]45CCCN4C[C@H](F)C5)nc13)N1CCOC[C@H](Cc3ncc(o3)CCc3c(Cl)cc4[nH]ncc4c3-2)C1 (single isomer, unassigned) [Example 375] |
| 2060 nM | 16 nM | 11 nM | 350 nM | – | – | – | – | – | – | Fc1c2ncc3c(nc(OC[C@@]45CCCN4C[C@H](F)C5)nc13)N1CCOC[C@@H](Cc3ncc(o3)CCc3c(Cl)cc4[nH]ncc4c3-2)C1 (single isomer, unassigned) [Example 376] |
| 817 nM | 15 nM | 8 nM | 371 nM | – | – | – | – | – | – | CN(C)CC1(COc2nc3c4cnc(c(F)c4n2)-c2c(c(Cl)cc4[nH]ncc24)CCCCOCC2(F)CCCCN3C2)CC1 (stereo in doubt) [Example 400, 1-(1-((((26R)-18-chloro-26,32-difluoro-24-oxa-1,3,5,9,14,15-hexaazahexacyclo[24.4.1.1~6,10~.0~2,7~.0~11,19~.0~12,16~]dotriaconta-2,4,6,8,10(32),11,13,16,18-nonaen-4-yl)oxy)methyl)cyclopropyl)-N,N-dimethylmethanamine] |
| 386 nM | 5 nM | 3 nM | 289 nM | – | – | – | – | – | – | CN(C)CC1(COc2nc3c4cnc(c(F)c4n2)-c2c(c(Cl)cc4[nH]ncc24)CCCCOCC2(F)CCCCN3C2)CC1 (stereo in doubt) [Example 401, 1-(1-((((26S)-18-chloro-26,32-difluoro-24-oxa-1,3,5,9,14,15-hexaazahexacyclo[24.4.1.1~6,10~.0~2,7~.0~11,19~.0~12,16~]dotriaconta-2,4,6,8,10(32),11,13,16,18-nonaen-4-yl)oxy)methyl)cyclopropyl)-N,N-dimethylmethanamine] |
| – | – | – | – | 4110 nM | 50 nM | 24 nM | 1400 nM | – | – | C[C@@]12CCCN(C1)c1nc(OC[C@@]34CCCN3C[C@H](F)C4)nc3c(F)c(ncc13)-c1cccc3ccc(F)c(c13)CC[C@@H](F)C(=O)N2 [Example 2, (15R,18R)-18,22,31-trifluoro-8-(((2R,7aS)-2-fluorotetrahydro-1H-pyrrolo[1,2-a]pyrrol-7a(5H)-yl)methoxy)-15-methyl-3,7,9,11,16-pentaazahexacyclo[19.7.1.1˜2,6˜.1˜11,15˜.0˜5,10˜.0˜25,29˜]hentriaconta-1(28),2(31),3,5,7,9,21,23,25(29),26-decaen-17-one] |
| – | – | – | – | 1200 nM | 6 nM | 5 nM | 92 nM | – | – | C[C@@]12CCCN(C1)c1nc(OC[C@@]34CCCN3C[C@H](F)C4)nc3c(F)c(ccc13)-c1cc(O)cc3ccc(F)c(c13)CCCC(=O)N2 [Example 16, (15R)-22,31-Difluoro-8-(((2R,7aS)-2-fluorotetrahydro-1H-pyrrolo[1,2-a]pyrrol-7a(5H)-yl)methoxy)-27-hydroxy-15-methyl-7,9,11,16-tetraazahexacyclo[19.7.1.1˜2,6˜.1˜11,15˜.0˜5,10˜.0˜25,29˜]hentriaconta-1(28),2(31),3,5,7,9,21,23,25(29),26-decaen-17-one bis(2,2,2-trifluoroacetate)] |
| – | – | – | – | 5000 nM | 7 nM | 5 nM | 1860 nM | – | – | COc1c2ncc3c(nc(OC[C@@]45CCCN4C[C@H](F)C5)nc13)N1CCC[C@](C)(C1)NC(=O)CCCc1c(F)ccc3cc(O)cc-2c13 [Example 19, (15R)-22-Fluoro-8-(((2R,7aS)-2-fluorotetrahydro-1H-pyrrolo[1,2-a]pyrrol-7a(5H)-yl)methoxy)-27-hydroxy-31-methoxy-15-methyl-3,7,9,11,16-pentaazahexacyclo[19.7.1.1˜2,6˜.1˜11,15˜.0˜5,10˜.0˜25,29˜]hentriaconta-1(28),2(31),3,5,7,9,21,23,25(29),26-decaen-17-one] |
| – | – | – | – | 2220 nM | 20 nM | 22 nM | 823 nM | – | – | Cc1cc2[nH]ncc2c2c1CCCCC(=O)N[C@]1(C)CCCN(C1)c1nc(OC[C@@]34CCCN3C[C@H](F)C4)nc3c(F)c-2ncc13 [Example 20, (17R)-30-Fluoro-24-(((2R,7aS)-2-fluorotetrahydro-1H-pyrrolo[1,2-a]pyrrol-7a(5H)-yl)methoxy)-9,17-dimethyl-5,6,16,21,23,25,29-heptaazahexacyclo[24.3.1.1˜17,21˜.0˜2,10˜.0˜3,7˜.0˜22,27˜]hentriaconta-1(30),2,4,7,9,22,24,26,28-nonaen-15-one bis(2,2,2-trifluoroacetate)] |
